Measurements: patent publication US12570605B2, “Indole compounds, and preparation methods, and uses thereof” (Shenzhen 01 Life Science and Technology Co., Ltd., priority 2021, dated 2026)
Entries after “also recorded” stand apart in the source; their conditions may differ.

Tests used:
[1] = test system: mouse model with ear AD-like symptoms induced by calcipotriol (MC903); test: Mouse model with ear AD-like symptoms induced by calcipotriol (MC903), first batch of experiments (Embodiment 32); assay type: in vivo, BALB/c mouse; conditions: MC903 6.9 nmol/mouse every day; for therapeutic effects on AD-like symptoms in the ear of mice (combined with ear inflammation and tissue HE staining): 11 days
Description: (§1) A mouse model with ear AD-like symptoms induced by calcipotriol (MC903) was used to investigate these compounds in terms of the treatment activity for AD.
(§2) Referring to the Patent with a publication number of CN 110368386 A, a mouse model induced by MC903 (Calcipotriene) was prepared, wherein both ears of the BALB/c mouse model were applied with MC903, MC903+indole-3-aldehyde (IAId), or MC903+the compound prepared from the embodiments for 11 consecutive days, respectively, and total serum IgE levels, ear thicknesses, and weight loss in relative to the weight at the beginning of the experiment were tested at the end of the experiment.
(§3) The data shown in the results were average values ±SD of five independently repeated trials. Significance analysis was performed using Mann-Whitney test on the differences of corresponding parameters of the mice with the treatment group (MC903+ethanol (EtOH)), which was only administrated with MC903, wherein * indicated P<0.05, ** indicated P<0.01; *** indicated P<0.001.
In this batch of experiments, the dosage of MC903, a drug for constructing the models, was 6.9 nmol/mouse every day, and the experimental results of Compounds 1, 2, 3, 6, 7, 19, 20, 28, 29, 30, 34, 37, 38, and 39 in this batch were shown in FIGS. 11 to 13.
EtOH group was a Blank control group, which was only administrated with ethanol. MC903+ EtOH group was a model control group, which was administrated with Calcipotriene and ethanol. The remaining groups were the groups which were administered with MC903 to construct the model, and then administrated with different drugs. Indole-3-aldehyde (IAId) group was the group administered with IAId, indole-3-methanol (I3C) group was the group administered with I3C. The other compound groups were the groups administered with corresponding compounds.

[2] = test system: mouse model with ear AD-like symptoms induced by calcipotriol (MC903); test: Mouse model with ear AD-like symptoms induced by calcipotriol (MC903), second batch of experiments (Embodiment 32); assay type: in vivo, BALB/c mouse; conditions: MC903 5 nmol/mouse every day, 9 days; for therapeutic effects on AD-like symptoms in the ear of mice (ear inflammation, tissue HE staining, parameters of multiple experiments): screening over both batches
Description: as §1, §2, §3
Therefore, in the second batch of drug tests, the dosage of MC903 was decreased to 5 nmol/mouse every day, and the test period was reduced to 9 days.
EtOH group was a Blank control group, which was only administrated with ethanol. MC903+ EtOH group was a model control group, which was administrated with Calcipotriene and ethanol. The remaining groups were the groups which were administered with MC903 to construct the model, and then administered with different drugs. Indole-3-aldehyde (IAId) group was the group administered with IAId. Indole-3-methanol (I3C) group was the group administered with I3C. The other compound groups were the groups administered with corresponding compounds.

[3] = test system: mouse model with ear AD-like symptoms induced by calcipotriol (MC903); test: Optimum effective concentration in treatment of AD-like symptoms, MC903 mouse model (Embodiment 33); assay type: in vivo; conditions: dosages per Table 11; vs group only administrated with MC903
Description: The above screened compounds having therapeutic effect on AD-like symptoms were selected to further determine the optimum effective concentration.
Referring to the animal model method in the Embodiment 32, dosages of drugs for each group were determined according to the table below, and the optimal effective concentration in treatment of AD-like symptoms was explored by comparing the differences in ear thicknesses, the total serum IgE levels and the weight loss of the mice with those of the treatment group only administrated with MC903.

[4] = both ears, 11 consecutive days, vs model control group (MC903+EtOH), Mann-Whitney test
[5] = vs model control group (MC903+EtOH), Mann-Whitney test

CCCCCCCC(=O)OCn1cc(CO)c2ccccc21 [Compound 38, (3-(hydroxymethyl)-1H-indol-1-yl)methyl octanoate]
therapeutic effects on AD-like symptoms in the ear of mice (combined with ear inflammation and tissue HE staining) [1]: significant therapeutic effects
reducing the total serum IgE levels of the mice [1, 4]: statistically significant difference; also recorded: excellent effects
therapeutic effects on AD-like symptoms in the ear of mice (ear inflammation, tissue HE staining, parameters of multiple experiments) [2]: therapeutic effects
reducing ear thicknesses of the mice [2, 5]: statistically significant difference
reducing the total serum IgE levels of the mice [2, 5]: statistically significant difference
inhibitory effect on systematic inflammation (lower total serum IgE levels and improvement on AD-like symptoms in the mice ear) [3]: good inhibitory effect; also recorded: excellent inhibitory effect

CCCCCCCC(=O)OCn1cc(C=O)c2ccccc21 [Compound 29, (3-formyl-1H-indol-1-yl)methyl octanoate]
therapeutic effects on AD-like symptoms in the ear of mice (combined with ear inflammation and tissue HE staining) [1]: significant therapeutic effects
reducing ear thicknesses of the mice [1, 4]: statistically significant difference; also recorded: excellent effects
reducing the total serum IgE levels of the mice [1, 4]: statistically significant difference
therapeutic effects on AD-like symptoms in the ear of mice (ear inflammation, tissue HE staining, parameters of multiple experiments) [2]: therapeutic effects
reducing ear thicknesses of the mice [2, 5]: statistically significant difference
inhibitory effect on systematic inflammation (lower total serum IgE levels and improvement on AD-like symptoms in the mice ear) [3]: good inhibitory effect
